Experimental data published in article PMC3759966 (The Biochemical journal, 2009).
Blank lines part the entries; values can stand above or below the compound they belong to.

Experiments:
SGK1 = target: T1, SGK1 (Homo sapiens, UniProt O00141); assay: Kinase profiling panel; type: biochemical; conditions: read-out: percentage of kinase activity compared with control
T1 sequence (O00141 1-431): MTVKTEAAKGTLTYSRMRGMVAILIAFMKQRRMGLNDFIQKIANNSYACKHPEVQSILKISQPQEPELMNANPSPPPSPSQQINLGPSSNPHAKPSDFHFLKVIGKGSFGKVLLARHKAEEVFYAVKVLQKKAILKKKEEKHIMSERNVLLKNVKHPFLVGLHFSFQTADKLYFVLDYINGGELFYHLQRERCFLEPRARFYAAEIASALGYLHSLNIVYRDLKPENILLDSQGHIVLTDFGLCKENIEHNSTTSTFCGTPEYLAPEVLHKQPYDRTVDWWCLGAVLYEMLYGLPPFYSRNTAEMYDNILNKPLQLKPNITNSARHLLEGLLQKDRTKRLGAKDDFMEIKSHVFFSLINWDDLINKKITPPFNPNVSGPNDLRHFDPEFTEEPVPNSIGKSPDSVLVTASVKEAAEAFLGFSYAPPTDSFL

PKCα = PKCα (Homo sapiens, UniProt P17252); assay: Kinase profiling panel; type: biochemical; conditions: read-out: percentage of kinase activity compared with control
SmMLCK = SmMLCK (Homo sapiens, UniProt Q15746); assay: Kinase profiling panel; type: biochemical; conditions: read-out: percentage of kinase activity compared with control
PHK = PHK (Homo sapiens, UniProt Q16816); assay: Kinase profiling panel; type: biochemical; conditions: read-out: percentage of kinase activity compared with control
Aurora B kinase = Aurora B kinase (Homo sapiens, UniProt Q96GD4); assay: Kinase profiling panel; type: biochemical; conditions: read-out: percentage of kinase activity compared with control
AMPK = assay: Kinase profiling panel; type: biochemical; conditions: 0.1 μM inhibitor
BRSK2 = target: T2, BRSK2 (Homo sapiens, UniProt Q8IWQ3); assay: Kinase profiling panel; type: biochemical; conditions: read-out: percentage of kinase activity compared with control
T2 sequence (Q8IWQ3 1-736): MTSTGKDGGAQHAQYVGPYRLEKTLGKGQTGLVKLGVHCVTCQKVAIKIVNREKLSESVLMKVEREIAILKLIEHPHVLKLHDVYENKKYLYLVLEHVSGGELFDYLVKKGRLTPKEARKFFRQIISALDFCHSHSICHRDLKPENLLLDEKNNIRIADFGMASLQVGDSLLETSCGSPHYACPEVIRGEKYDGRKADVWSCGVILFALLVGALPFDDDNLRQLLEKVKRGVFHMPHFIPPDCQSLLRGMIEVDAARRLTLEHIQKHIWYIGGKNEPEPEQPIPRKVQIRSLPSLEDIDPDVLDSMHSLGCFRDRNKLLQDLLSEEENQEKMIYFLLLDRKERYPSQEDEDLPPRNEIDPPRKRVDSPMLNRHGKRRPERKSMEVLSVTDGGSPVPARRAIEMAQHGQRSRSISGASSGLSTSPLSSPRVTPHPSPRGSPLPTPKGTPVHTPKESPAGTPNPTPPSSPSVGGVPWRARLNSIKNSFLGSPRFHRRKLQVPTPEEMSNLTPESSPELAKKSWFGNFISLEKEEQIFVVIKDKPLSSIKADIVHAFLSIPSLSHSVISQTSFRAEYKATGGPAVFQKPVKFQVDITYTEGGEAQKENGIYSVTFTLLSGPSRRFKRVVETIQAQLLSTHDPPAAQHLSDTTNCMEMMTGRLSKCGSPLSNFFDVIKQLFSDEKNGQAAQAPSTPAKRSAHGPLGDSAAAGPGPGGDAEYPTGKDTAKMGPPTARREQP

CK2 = CK2 (Homo sapiens, UniProt P68400); assay: Kinase profiling panel; type: biochemical; conditions: read-out: percentage of kinase activity compared with control
PAK4 = PAK4 (Homo sapiens, UniProt O96013); assay: Kinase profiling panel; type: biochemical; conditions: read-out: percentage of kinase activity compared with control
GCK = target: T3, GCK (Homo sapiens, UniProt Q12851); assay: Kinase profiling panel; type: biochemical; conditions: read-out: percentage of kinase activity compared with control
T3 sequence (Q12851 1-820): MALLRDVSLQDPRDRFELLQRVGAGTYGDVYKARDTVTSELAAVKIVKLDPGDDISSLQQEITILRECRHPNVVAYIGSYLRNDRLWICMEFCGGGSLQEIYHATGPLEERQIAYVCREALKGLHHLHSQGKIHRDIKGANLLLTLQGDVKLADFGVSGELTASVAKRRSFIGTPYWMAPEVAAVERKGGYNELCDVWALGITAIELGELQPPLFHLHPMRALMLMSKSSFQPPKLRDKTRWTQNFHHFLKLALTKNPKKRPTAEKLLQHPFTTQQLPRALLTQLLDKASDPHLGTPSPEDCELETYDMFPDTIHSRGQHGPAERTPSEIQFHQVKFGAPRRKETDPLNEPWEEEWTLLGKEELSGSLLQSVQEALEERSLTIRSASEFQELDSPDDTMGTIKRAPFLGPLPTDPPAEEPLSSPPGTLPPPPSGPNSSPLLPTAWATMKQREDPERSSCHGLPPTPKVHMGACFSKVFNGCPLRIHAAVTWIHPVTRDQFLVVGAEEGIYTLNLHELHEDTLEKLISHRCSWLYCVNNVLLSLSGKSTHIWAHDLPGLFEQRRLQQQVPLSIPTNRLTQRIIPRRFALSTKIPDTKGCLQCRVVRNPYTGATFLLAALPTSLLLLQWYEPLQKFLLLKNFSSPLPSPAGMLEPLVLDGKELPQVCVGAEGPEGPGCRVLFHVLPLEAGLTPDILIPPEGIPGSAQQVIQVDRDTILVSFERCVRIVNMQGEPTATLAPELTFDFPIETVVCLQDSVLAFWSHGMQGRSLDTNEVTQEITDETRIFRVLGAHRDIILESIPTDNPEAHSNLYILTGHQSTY

TTK = target: T4, TTK (Homo sapiens, UniProt P33981); assay: Kinase profiling panel; type: biochemical; conditions: read-out: percentage of kinase activity compared with control
T4 sequence (P33981 1-857): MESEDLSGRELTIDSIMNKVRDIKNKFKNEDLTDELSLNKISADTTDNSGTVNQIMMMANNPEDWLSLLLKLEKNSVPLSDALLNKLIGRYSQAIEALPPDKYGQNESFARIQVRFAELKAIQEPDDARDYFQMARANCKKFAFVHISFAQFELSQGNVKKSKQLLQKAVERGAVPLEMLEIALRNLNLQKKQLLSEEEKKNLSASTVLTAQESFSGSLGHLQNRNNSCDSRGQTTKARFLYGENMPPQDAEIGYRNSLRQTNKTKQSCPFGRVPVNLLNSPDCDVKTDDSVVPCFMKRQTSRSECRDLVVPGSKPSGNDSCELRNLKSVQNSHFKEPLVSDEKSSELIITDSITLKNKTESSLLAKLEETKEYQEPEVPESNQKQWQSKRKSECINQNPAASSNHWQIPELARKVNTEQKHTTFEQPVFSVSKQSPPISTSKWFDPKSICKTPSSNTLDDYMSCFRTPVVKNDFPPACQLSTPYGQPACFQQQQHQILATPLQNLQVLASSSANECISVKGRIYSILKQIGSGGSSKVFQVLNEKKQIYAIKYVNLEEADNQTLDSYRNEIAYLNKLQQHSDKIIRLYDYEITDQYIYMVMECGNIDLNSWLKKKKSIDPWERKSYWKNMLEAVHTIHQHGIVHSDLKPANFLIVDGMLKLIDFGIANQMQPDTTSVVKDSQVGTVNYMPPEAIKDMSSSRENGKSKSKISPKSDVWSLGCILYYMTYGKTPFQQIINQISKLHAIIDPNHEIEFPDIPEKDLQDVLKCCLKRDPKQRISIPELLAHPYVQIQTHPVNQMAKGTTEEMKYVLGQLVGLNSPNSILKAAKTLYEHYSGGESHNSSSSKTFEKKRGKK

FGFR1 = FGFR1 (Homo sapiens, UniProt P11362); assay: Kinase profiling panel; type: biochemical; conditions: read-out: percentage of kinase activity compared with control
IRR = IRR (Homo sapiens, UniProt P14616); assay: Kinase profiling panel; type: biochemical; conditions: read-out: percentage of kinase activity compared with control
IGF-1R = IGF-1R (Homo sapiens, UniProt P08069); assay: Kinase profiling panel; type: biochemical; conditions: read-out: percentage of kinase activity compared with control
[1] = system: ERM protein phosphorylation (site equivalent to Thr567 of ezrin); assay: ERM protein phosphorylation in HEK-293 cells; type: cell-based, human; conditions: 10 μM, 1 h; in the presence or absence of G14V-Rho
[2] = target: endogenous LRRK2 from Swiss-3T3 cells (Mus musculus, UniProt Q5S006); assay: Kinase assay of immunoprecipitated endogenous LRRK2 with Nictide; type: biochemical; conditions: Swiss-3T3 immunoprecipitates, Nictide substrate
[3] = system: panel of 85 protein kinases; assay: Selectivity over kinase panel; type: biochemical; conditions: 1 μM; out of the 85 kinases profiled
LRRK2 = conditions: cited from earlier work
[4] = system: phosphorylation of MYPT at Thr850; assay: MYPT Thr850 phosphorylation in HEK-293 cells; type: cell-based, human; conditions: 10 μM, 1 h; HEK-293 cells with or without G14V-Rho
[5] = target: T5, GST–LRRK2[G2019S]-(1326–2527) (Homo sapiens, UniProt Q5S007, G2019S); assay: Peptide kinase assay with inhibitors; type: biochemical; conditions: for inhibition of LRRK2[G2019S] (in words): 100 μM ATP
T5 sequence (Q5S007 1326-2527 G2019S): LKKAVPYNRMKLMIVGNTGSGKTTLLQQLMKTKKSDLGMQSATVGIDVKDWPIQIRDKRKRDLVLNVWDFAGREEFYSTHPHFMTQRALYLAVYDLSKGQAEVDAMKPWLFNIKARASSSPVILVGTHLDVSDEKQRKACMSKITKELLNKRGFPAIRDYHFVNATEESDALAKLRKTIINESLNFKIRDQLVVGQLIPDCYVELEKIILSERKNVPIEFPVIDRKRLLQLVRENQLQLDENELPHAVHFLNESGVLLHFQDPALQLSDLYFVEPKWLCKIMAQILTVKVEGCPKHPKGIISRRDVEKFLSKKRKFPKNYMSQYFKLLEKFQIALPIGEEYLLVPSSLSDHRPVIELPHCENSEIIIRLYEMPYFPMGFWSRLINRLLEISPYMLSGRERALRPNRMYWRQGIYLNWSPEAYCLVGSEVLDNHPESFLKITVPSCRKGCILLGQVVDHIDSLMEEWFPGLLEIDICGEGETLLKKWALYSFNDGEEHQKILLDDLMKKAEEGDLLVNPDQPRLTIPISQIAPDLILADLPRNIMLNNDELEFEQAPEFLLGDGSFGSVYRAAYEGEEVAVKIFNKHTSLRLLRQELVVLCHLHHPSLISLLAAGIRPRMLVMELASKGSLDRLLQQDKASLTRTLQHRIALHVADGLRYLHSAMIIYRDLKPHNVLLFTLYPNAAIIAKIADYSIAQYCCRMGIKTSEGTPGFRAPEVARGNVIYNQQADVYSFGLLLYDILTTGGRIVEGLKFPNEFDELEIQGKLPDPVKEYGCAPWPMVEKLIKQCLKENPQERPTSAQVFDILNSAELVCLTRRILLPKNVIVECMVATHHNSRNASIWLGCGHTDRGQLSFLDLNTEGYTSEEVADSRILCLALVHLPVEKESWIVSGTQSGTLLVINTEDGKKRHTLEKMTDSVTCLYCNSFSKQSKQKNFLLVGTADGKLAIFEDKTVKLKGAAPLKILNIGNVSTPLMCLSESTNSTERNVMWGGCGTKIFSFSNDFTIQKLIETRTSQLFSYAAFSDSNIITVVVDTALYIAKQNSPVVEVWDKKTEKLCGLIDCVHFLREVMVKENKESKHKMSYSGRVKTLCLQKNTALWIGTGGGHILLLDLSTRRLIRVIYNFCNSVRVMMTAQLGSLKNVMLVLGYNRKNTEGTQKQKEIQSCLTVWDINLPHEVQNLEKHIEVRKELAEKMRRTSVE

Chain of endogenous LRRK2 from Swiss-3T3 cells (Q5S006 whole entry): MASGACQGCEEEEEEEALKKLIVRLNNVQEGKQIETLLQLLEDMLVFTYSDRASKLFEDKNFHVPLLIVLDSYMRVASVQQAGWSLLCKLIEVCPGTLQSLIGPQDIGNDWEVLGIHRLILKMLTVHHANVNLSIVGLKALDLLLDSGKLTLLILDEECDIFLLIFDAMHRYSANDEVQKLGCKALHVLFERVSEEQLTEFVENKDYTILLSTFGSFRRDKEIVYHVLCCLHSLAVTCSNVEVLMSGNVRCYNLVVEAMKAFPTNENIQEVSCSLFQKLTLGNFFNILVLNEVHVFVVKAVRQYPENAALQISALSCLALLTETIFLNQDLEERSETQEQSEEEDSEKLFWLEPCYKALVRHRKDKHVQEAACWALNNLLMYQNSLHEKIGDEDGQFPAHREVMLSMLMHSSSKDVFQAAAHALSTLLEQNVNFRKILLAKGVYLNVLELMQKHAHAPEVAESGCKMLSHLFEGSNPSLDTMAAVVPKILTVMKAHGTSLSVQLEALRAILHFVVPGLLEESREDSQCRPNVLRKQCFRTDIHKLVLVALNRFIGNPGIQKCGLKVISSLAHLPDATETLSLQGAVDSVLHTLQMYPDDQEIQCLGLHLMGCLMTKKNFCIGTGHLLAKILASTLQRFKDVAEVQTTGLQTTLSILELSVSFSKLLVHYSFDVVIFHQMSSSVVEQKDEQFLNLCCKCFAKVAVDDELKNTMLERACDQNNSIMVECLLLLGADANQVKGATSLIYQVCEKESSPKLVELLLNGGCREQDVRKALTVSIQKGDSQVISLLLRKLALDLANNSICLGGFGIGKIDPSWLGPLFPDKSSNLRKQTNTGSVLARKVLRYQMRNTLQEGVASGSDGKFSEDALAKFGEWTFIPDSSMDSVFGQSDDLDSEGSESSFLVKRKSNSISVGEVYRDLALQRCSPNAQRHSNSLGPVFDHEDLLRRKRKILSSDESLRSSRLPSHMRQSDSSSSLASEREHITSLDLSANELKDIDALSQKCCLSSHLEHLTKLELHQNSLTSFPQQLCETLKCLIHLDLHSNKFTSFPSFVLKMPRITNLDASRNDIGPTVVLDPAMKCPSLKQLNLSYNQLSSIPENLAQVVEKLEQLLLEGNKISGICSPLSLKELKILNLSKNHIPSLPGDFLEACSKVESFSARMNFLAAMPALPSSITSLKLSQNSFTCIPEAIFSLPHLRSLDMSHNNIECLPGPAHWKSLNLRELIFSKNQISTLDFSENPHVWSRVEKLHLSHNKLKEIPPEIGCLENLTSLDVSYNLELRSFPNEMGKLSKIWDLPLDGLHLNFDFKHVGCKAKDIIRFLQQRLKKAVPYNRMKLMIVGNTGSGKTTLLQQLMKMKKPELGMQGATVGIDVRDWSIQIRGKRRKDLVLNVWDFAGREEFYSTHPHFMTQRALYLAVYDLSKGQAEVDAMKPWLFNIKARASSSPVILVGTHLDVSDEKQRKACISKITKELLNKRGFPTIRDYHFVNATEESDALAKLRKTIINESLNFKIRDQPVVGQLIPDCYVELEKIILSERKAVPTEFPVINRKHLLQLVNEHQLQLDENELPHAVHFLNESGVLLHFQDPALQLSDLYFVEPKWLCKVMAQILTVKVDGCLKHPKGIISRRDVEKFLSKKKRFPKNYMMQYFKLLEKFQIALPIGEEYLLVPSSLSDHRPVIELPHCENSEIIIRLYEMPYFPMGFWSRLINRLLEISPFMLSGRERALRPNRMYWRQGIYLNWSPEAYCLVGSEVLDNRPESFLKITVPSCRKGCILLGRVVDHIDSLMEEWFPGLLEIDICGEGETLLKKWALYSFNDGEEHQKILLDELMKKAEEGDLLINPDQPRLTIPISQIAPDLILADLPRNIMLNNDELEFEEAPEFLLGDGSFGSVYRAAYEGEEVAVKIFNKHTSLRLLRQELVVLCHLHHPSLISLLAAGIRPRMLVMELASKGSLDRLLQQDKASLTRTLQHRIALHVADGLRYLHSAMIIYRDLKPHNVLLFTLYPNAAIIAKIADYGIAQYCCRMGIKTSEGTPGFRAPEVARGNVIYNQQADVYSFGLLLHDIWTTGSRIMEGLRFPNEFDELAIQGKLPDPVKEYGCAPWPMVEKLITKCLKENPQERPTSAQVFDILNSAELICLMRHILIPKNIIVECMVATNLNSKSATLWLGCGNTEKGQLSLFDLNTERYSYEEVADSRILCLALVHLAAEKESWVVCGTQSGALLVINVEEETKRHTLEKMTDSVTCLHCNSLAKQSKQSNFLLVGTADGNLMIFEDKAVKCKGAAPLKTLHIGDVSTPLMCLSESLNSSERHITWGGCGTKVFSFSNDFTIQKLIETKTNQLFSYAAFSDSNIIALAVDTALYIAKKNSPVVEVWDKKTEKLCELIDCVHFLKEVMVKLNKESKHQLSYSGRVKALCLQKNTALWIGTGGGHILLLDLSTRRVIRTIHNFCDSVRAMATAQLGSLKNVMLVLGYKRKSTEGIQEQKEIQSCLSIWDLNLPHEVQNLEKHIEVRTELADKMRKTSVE
Chain of FGFR1 (P11362 22-822): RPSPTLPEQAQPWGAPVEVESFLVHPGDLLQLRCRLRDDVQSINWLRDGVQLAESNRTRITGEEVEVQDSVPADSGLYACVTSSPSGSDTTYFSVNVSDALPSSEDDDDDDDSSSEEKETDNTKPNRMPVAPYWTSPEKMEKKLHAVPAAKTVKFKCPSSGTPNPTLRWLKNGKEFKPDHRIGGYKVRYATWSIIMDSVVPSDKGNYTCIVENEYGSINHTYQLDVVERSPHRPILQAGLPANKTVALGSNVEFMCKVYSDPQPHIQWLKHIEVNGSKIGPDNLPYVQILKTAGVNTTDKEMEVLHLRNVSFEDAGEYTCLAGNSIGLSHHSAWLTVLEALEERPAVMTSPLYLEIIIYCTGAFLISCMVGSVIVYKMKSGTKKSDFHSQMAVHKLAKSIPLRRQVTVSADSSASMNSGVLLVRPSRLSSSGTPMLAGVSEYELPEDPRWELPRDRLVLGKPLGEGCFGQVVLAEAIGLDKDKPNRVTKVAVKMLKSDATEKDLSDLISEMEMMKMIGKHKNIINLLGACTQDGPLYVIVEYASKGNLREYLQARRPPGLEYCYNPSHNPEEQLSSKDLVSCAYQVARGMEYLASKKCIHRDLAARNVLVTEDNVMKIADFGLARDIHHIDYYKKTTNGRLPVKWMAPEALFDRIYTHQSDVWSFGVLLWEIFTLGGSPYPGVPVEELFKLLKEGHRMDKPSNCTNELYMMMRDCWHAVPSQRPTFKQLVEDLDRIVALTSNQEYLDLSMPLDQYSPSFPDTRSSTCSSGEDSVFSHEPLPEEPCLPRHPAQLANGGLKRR
Chain of IRR (P14616 27-1297): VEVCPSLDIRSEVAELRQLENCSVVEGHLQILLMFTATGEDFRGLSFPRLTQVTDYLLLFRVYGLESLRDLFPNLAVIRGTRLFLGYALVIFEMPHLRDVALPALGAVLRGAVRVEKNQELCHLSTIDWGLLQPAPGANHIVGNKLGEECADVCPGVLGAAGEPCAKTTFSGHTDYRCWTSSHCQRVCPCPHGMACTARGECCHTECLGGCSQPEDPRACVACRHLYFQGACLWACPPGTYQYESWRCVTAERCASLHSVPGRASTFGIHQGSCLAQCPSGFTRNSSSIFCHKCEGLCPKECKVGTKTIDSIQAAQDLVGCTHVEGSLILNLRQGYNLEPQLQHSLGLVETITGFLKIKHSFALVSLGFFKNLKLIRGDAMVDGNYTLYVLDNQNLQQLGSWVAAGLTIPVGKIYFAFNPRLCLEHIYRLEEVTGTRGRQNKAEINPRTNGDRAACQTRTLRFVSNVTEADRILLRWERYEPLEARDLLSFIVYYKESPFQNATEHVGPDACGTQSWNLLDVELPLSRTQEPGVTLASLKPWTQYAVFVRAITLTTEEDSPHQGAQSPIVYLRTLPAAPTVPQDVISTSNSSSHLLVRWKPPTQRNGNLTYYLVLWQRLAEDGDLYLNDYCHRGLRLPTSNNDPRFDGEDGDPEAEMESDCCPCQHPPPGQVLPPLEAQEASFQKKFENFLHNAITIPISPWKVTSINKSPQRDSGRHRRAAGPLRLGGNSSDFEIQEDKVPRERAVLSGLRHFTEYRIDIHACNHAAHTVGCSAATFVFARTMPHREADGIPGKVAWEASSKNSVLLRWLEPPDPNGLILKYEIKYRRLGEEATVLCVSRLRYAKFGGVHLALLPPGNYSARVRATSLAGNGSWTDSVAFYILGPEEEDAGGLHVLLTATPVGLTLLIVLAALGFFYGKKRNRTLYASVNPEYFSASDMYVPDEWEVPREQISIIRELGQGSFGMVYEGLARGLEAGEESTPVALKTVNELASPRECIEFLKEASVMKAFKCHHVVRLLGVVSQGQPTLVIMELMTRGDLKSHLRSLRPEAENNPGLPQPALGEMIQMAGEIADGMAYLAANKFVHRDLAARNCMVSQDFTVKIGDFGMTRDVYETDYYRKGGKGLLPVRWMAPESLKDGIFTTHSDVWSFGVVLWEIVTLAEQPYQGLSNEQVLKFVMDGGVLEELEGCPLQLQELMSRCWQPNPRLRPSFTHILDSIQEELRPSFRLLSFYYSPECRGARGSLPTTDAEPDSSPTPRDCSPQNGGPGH
Chain of CK2 (P68400 whole entry): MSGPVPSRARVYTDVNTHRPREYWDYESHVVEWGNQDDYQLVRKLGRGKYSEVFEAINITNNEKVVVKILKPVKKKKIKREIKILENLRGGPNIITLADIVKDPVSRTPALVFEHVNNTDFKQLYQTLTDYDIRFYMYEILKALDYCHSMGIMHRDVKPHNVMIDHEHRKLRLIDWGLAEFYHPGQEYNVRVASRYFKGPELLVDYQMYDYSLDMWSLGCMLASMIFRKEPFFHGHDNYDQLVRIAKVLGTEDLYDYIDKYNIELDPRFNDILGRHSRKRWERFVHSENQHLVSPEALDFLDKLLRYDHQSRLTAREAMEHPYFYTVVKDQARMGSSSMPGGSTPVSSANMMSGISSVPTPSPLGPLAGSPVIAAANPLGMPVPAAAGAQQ

SMILES: CCN(CC)CCNC(=O)c1c(C)[nH]c(/C=C2\C(=O)Nc3ccc(F)cc32)c1C [Sunitinib, sunitinib]
remaining activity at 1 µM (SGK1): 26 ± 5%
remaining activity at 1 µM (PKCα): 77 ± 9%
remaining activity at 1 µM (SmMLCK): 26 ± 3%
remaining activity at 0.1 µM (PHK): 11 ± 1%
remaining activity at 0.1 µM (Aurora B kinase): 72 ± 5%
percentage of kinase activity compared with control (AMPK): 51 ± 3%
remaining activity at 1 µM (BRSK2): 40 ± 6%
remaining activity at 1 µM (CK2): 72 ± 1%
remaining activity at 1 µM (PAK4): 72 ± 5%
remaining activity at 1 µM (GCK): 11 ± 1%
remaining activity at 1 µM (TTK): 72 ± 6%
remaining activity at 0.1 µM (FGFR1): 77 ± 2%
remaining activity at 1 µM (IRR): 77 ± 24%
remaining activity at 1 µM (IGF-1R): 33 ± 6%
effect on ERM protein phosphorylation [1]: did not inhibit
effect on protein kinase activity in LRRK2 immunoprecipitate [2]: suppressed
number of kinases significantly inhibited [3]: 12

SMILES: C[C@@H](N)[C@H]1CC[C@H](C(=O)Nc2ccncc2)CC1 [Y-27632]
effect on phosphorylation of MYPT at Thr850 [4]: ablated phosphorylation
effect on ERM protein phosphorylation [1]: did not inhibit

SMILES: O=S(=O)(c1cccc2cnccc12)N1CCCNCC1 [HA-1077, fasudil]
inhibition of LRRK2[G2019S] (in words) [5]: weakly

SMILES: O=S(=O)(NCCNCC=Cc1ccc(Br)cc1)c1cccc2cnccc12 [H-89, N-[2-(p-bromocinnamylamino)ethyl]-5-isoquinolinesulfonamide]
inhibition of LRRK2[G2019S] (in words) [5]: weakly

SMILES: Cc1cncc2cccc(S(=O)(=O)N3CCCNC[C@@H]3C)c12 [H-1152, (S)-(+)-2-methyl-1-[(4-methyl-5-isoquinoline)sulfonyl]-homopiperazine]
effect on phosphorylation of MYPT at Thr850 [4]: ablated phosphorylation
effect on ERM protein phosphorylation [1]: did not inhibit
effect on protein kinase activity in LRRK2 immunoprecipitate [2]: suppressed

SMILES: CCn1c(-c2nonc2N)nc2cnc(Oc3cccc(NC(=O)c4ccc(OCCN5CCOCC5)cc4)c3)cc21 [GSK269962A]
effect on phosphorylation of MYPT at Thr850 [4]: ablated phosphorylation
effect on ERM protein phosphorylation [1]: did not inhibit
number of kinases significantly inhibited [3]: seven

inhibition of LRRK2 at high dose (in words) ([5]; doses as high as 30 μM): does not significantly inhibit
SMILES: CC1=C(C(=O)Nc2cc3cn[nH]c3cc2F)C(c2ccc(C(F)(F)F)cc2)CC(=O)N1 (stereo not shown) [GSK429286A]
effect on phosphorylation of MYPT at Thr850 [4]: ablated phosphorylation
effect on ERM protein phosphorylation [1]: did not inhibit
